The nature of this data set: In vivo distribution of 99mTc-labelled chelators in rats. Particulars: for GI tract accumulation/localization (share of the dose) / localization in urine / dose remaining in the blood / accumulation in the kidney: male Wistar rats; for GI tract accumulation/localization (share of the dose): 99mTc-labelled chelator 200 μL (200 μCi) i.v. tail vein, organs counted after 120 min images; for localization in urine / dose remaining in the blood / accumulation in the kidney: 99mTc-labelled chelator i.v. tail vein; for dose remaining in the blood: after 120 min images, blood volume assumed 8% body weight; for accumulation in the kidney: examples 1 and 2 approximately equal. Also on record: species or system male Wistar rats. The method, then: Approximately 1 mg of each chelator was dissolved in 200 μL saline or 200 μL ethanol:water (1:1) in a tube. To the tube was added 100-300 μL sodium ^99m Tc-pertechnetate (5-15 mCi), 100 μL phosphate buffer (0.25M, pH 7.4), and 200 μL of a solution containing 50 μg stannous chloride dihydrate and 40 mg sodium tartrate dihydrate. The tube was capped tightly and placed in a boiling water bath for 10 minutes.
After cooling, the reaction mixture was loaded onto a C-18 solid-phase extraction cartridge (Sep-Pak) which had been activated with 5 mL methanol and 5 mL 1 mM HCl. The cartridge was washed with 5 mM HCl and the eluate was collected in a test tube. The cartridge was then dried by forcing air through it. The product was eluted with 2 mL ethanol:water (1:1) and collected in a separate tube. The cartridge was placed in another tube and the three tubes were assayed in a radionuclide dose calibrator (ionization chamber). The yield was calculated as the activity in the ethanol:water eluate divided by the total activity in the three tubes under the assumption that the desired product was relatively lipophilic. A less lipophilic chelator would elute partially in the acid wash and the apparent yield would be low.
Distribution within rats of selected chelators and a reference chelator were determined using established protocols. Briefly, male Wistar rats (Charles River, 200 g) were anaesthetized with somnitol (40 to 50 mg/kg) and 200 μL of the labelled chelator (ie. 200 μCi) was injected intravenously via the tail vein. Serial whole-body scintigrams were acquired for first 10 minutes, After further images were obtained at 60 and 120 minutes, the rat was killed with anaesthesia and samples of organs (blood, heart, lung, liver, spleen, kidney, muscle, GI tract) were weighed and counted in either a well-type gamma counter or in a gamma dose calibrator. Dose calculations were made based on the assumption that rats weighed 200 g and that the blood volume constituted 8% body weight. All results were corrected for the residual dose in the tail.

Counter-ions that a name gives are not always drawn.

For the compound `O=C(CNC(=O)CSC(=O)c1ccccc1)CNC(=O)CSC(=O)c1ccccc1` [Example 3, N,N'-bis-(S-benzoylmercaptoacetyl)-1,3-diaminoacetone], the “GI tract accumulation/localization (share of the dose)” value (“GI tract accumulation/localization” for short) was determined as 50%, the localization in urine stood at 25% and the “dose remaining in the blood” value turned out to be 3%. For the setting “rats, i.v.”, the “clearance from the blood (and other tissues), in words” value was “fastest clearance from the blood and other tissues”; the route of elimination entry was “mainly eliminated through the liver and GI tract”.

As to `N=C(NNC(=O)CSC(=O)c1ccccc1)NNC(=O)CSC(=O)c1ccccc1` [Example 2, N,N'-bis-(S-benzoylmercaptoacetyl)-1,3-diaminoguanidine hydrochloride], the “GI tract accumulation/localization” value was found to be 30%, the localization in urine was 20%, the “dose remaining in the blood” value is listed as “about 10%” and the “accumulation in the kidney” value is reported as 7-14%.

Regarding `O=C(CSC(=O)c1ccccc1)NNC(=O)NNC(=O)CSC(=O)c1ccccc1` [Example 1, N,N'-bis(S-benzoylmercaptoacetyl)-carbohydrazide], the “GI tract accumulation/localization” value was “about 9%”, the “dose remaining in the blood” value is “about 14%” and the “accumulation in the kidney” value is on record as 7-14%. Also, under “in comparison with the N2S2 reference chelator, rats, i.v.”, the “GI tract excretion (in words)” value is on record as “remarkably low”.

Source of the values: patent publication US5858327A, “Hydrazino-type N2 S2 radionuclide chelating compounds” (Resolutions Pharmaceuticals, Inc., priority 1996, dated 1999).
